# Values of other authors as cited in US6599496B2, “Endoscopy tissue stain” (Chek-Med Systems, Inc., priority 1999, dated 2003).
# Test system: colon
# Conditions: Hammond et al.
smiles,measurement,value
CC1(C)C(/C=C/C=C/C=C/C=C2\N(CCCCS(=O)(=O)O)c3ccc4ccccc4c3C2(C)C)=[N+](CCCCS(=O)(=O)[O-])c2ccc3ccccc3c21 [Indocyanine green],permanence of the marking of lesions of the colon,does not have long term permanence
